Measurements published in patent US9636021B2, “Flavonoid compounds of low toxicity for biological imaging applications” (The University of Akron, priority 2014, dated 2017).
One block for each molecule: values may come before it.

Experiments:
[1] = absorbance and fluorescence spectra in DMSO; assay type: physicochemical
Source text: The absorbance and fluorescence spectra of compounds 1-6 in dimethyl sulfoxide (DMSO) were investigated and the results are in Table 1.

[2] = target: bovine serum albumin (BSA) (Bos taurus, UniProt P02769); experiment: fluorescence turn-on with BSA in PBS buffer; assay type: binding; settings: for detection limit (10% increase in fluorescence emission) / visual recognizable detection limit (S/N above 3:1): BSA; for F(+)/F(−) fluorescence intensity with BSA / without BSA: BSA 1.0 mg/ml; for F(+)/F(−) fluorescence intensity with BSA / without BSA / λabs(+) / λem(+) / λabs(−) / λem(−): 10 μM dye; for λabs(+) / λem(+): with BSA 1.0 mg/ml; for λabs(−) / λem(−): without BSA
Sequence of bovine serum albumin (BSA) (P02769 25-607): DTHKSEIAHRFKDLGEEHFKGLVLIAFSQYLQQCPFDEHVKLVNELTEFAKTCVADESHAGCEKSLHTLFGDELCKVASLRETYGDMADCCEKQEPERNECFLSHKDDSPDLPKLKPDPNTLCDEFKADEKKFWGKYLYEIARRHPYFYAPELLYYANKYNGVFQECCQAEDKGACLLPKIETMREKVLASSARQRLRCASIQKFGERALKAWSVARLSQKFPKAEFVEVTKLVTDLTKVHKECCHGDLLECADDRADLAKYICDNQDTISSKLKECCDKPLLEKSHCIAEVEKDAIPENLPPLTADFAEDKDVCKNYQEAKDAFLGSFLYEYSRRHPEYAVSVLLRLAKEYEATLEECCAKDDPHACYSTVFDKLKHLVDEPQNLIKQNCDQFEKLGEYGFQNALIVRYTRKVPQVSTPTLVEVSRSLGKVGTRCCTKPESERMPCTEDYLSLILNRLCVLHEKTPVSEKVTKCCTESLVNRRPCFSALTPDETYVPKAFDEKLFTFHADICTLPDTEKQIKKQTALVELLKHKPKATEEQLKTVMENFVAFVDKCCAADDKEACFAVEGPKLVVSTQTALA
Protocol: In the aqueous buffer (0.5% DMSO, 10 mM of PBS, pH=7.4), the BSA binding-induced fluorescence turn-on was so large that it could be easily seen by naked eye. […] The intramolecular charge transfer along the D-A conjugated backbone plays a very important role in the environment-sensitivity of the flavone. All the evidence consistently pointed to the flavone dye entering the hydrophobic site of BSA.
Generally, the detection limit can be defined as the analyte concentration at which a 10% increase in fluorescence emission can be measured.
Therefore, the detection limits of compounds 1-6 were 2.6, 0.14, 0.59, 0.09, 14, and 3.4 μg/mL, respectively. For Off/On type fluorescent sensor, the Signal-to-Noise (S/N) ratio above 3:1 is considered reliable for visual evaluation. The visual recognizable detection limits of compounds 1-6 were calculated as 78, 4.2, 17.7, 2.7, 420, and 102 μg/mL, respectively. The reference range for serum albumin concentration in human blood plasma is approximately 35-50 mg/mL. Even in fish, the concentration of serum albumins can reach 0.5-5 mg/mL. The detection limits of the compounds were much lower than serum albumin concentration, indicating the capability for actual blood sample testing.

[3] = tested on: serum albumin in monkey serum; experiment: fluorescence response to monkey serum; assay type: binding; settings: 10 μM in 1 mL PBS
Protocol: FIG. 18 provides a chart of fluorescence spectra changes and of compound 4 (10 μM, in 1 mL of PBS buffer solution) upon addition of different volume of monkey serum;
FIG. 19 provides a chart of fluorescent intensities (λ=505 nm) of compound 4 (10 μM, in 1 mL of PBS buffer solution) upon addition of different volume of monkey serum;
Serum albumin is known as the most abundant protein in blood serum. The probe's fluorescence response to serum albumin in real blood samples would be considered as an ideal sensing tool. In this example, 10 μM of compound 4 was dissolved in 1 mL of PBS buffer as a test solution. […] The detection limit (S/N>3) for monkey serum was calculated as 0.03 μL.

[4] = target: BSA, human serum albumin (HSA) (Bos taurus, UniProt P02769); experiment: wash-free staining of proteins in SDS-PAGE gel; assay type: binding; settings: 2 hours staining, 10 mM dye, 0.3% SDS, no washing
Sequence of BSA, human serum albumin (HSA) (Bos taurus, UniProt P02769) (P02769 25-607): as above
Protocol: (§1) FIG. 20 provides fluorescence images of several proteins in electrophoresis gel stained by compound 4 before and after washing 1. BSA at 0.1 μg; 2. BSA at 1 μg; 3. BSA at 10 μg; 4. BSA at 100 μg; 5. HSA at 10 μg; 6. Fibrinogen at 10 μg; 7. Lysozyme at 10 μg; 8. Trypsin at 10 μg;
(§2) Various proteins were run on the 1-D SDS-PAGE minigels with running buffer (25 mM Tris, 192 mM glycine, 0.1% SDS pH 8.3) under 100 volts for 1.5 hrs. The minigels were then placed in the dye solution (10 mM of compound 4, 0.3% SDS, and AcOH/DMSO/H2O=5:10:85). […] Therefore, the discovered protein-staining reagent had the following advantages: (1) low interference of SDS to fluorescence, thereby eliminating the pretreatment; (2) very weak fluorescent in water and gels to eliminate the need for the washing process; (3) strong interaction with the proteins (serum albumin) to reduce the staining time; (4) a high signal-to-noise (S/N) ratio for the high contrast ratio of images.

[5] = tested on: BSA, human serum albumin (HSA); experiment: wash-free staining of proteins in SDS-PAGE gel; assay type: binding; settings: BSA, HSA vs fibrinogen, lysozyme, trypsin, 10 μg
Protocol: as §1, §2

[6] = target: T1, bovin serum albumin (BSA) (Bos taurus, UniProt P02769); experiment: interaction between CDCO and BSA (absorption, fluorescence, warfarin displacement); assay type: binding, bovine
T1 construct: purchased Sigma Aldrich (St. Louis, Mo.)
T1 sequence (P02769 25-607): as above
Source text: The bovin serum albumin (BSA) as the common protein model was used to investigate the interaction between CDCO and proteins. After addition of one equivalent of BSA, the absorption peak at 385 nm was shifted to 402 nm. With the excitation at 400 nm, the fluorescence intensity of CDCO was enhanced about 2-fold, which was accompanied with a large blue-shift (by about 60 nm) from 560 nm to 500 nm. […] However, when the sample was excited at 570 nm, a red/near-infrared fluorescence peak was detected at 700 nm. In order to determine the location of CDCO on BSA, the displacement of CDCO was carried out by addition of warfarin, which is known to strongly bind to the warfarin binding site in Domain II A of BSA. […] It is believed that the emission at 750 nm might be related to the complicated charge and energy transfer inside dye-BSA complex.

[7] = tested on: zebrafish vitellogenin; experiment: interaction between CDCO and zebrafish vitellogenin; assay type: binding
Protocol: ^1H NMR and ^13C NMR spectra were obtained using an AVANCE II apparatus from Bruker Corporation (Billerica, Mass.). UV-vis spectra were acquired on an 8453 diode-array spectrometer from Hewlett-Packard (Palo Alto, Calif.). Fluorescence spectra were measured by RF-5301 PC spectrometer from Shimadzu Corporation (Kyoto, Japan). Electrospray ionization (ESI) mass spectra were acquired with a Synapt HDMS quadrupole/time-of-flight (Q/ToF) mass spectrometer from Waters Corporation (Milford, Mass.). All the solvents for the fluorescence experiments were analytic grade, which were purchased from Fisher Scientific (Waltham, Mass.) and used without further purification. Bovine serum albumin was purchased from Sigma Aldrich (St. Louis, Mo.). Zebrafish vitellogenin standard was purchased from Cayman Europe Biosense Laboratories (No. V01008301). The fluorescence imaging was obtained by X-Cite™ Series 120Q fluorescence microscope from Lumen Dynamics. For the blue channel filter: excitation 365 nm, beam splitter FT 395 nm, emission 445/50 nm. For the green channel filter: excitation 450-490 nm, beam splitter FT 510 nm, emission 515-565 nm. For the red channel filter: excitation 587/25 nm, beam splitter FT 605 nm, emission 647/70 nm.
Zebrafish embryos at 16 hours post fertilization (hpf) were initially used to study the CDCO's stain ability. […]

[8] = tested on: yolk syncytial layer (YSL) of zebrafish embryos; experiment: fluorescence staining of zebrafish embryos and larvae; assay type: in vivo, zebrafish (Danio rerio)
Protocol: Zebrafish embryos at 16 hours post fertilization (hpf) were initially used to study the CDCO's stain ability. A developing zebrafish body is normally covered by chorion and enveloping layer (EVL), which prevent dye molecules permeating into the fish body. In this example, 0.2% DMSO with 10 μM CDCO was infused to the E3 medium to decrease the barrier function of the zebra fish chorion without damaging the fish embryos' structural integrity. […] Thus, it is believed that CDCO selectively stained the YSL region.
To investigate the location of CDCO labeling, zebra fish embryos at nine representative stages of early development were incubated with 10 μM CDCO for 30 minutes at 28.5° C., respectively (FIGS. 3-8). The YSL is initially generated by the collapse/fusion of marginal blastomeres with the yolk cell, and then a thin ring of YSL nuclei forms in front of blastoderm margin at high stage.
The YSL structure can persist on the edge of yolk cell until larval stages. […] This YSL-imaging method can selectively stain the YSL structure from its initial formation, to the dynamic epiboly, and finally to the disappearance of YSL, thus representing a promising tracking agent for zebrafish embryonic development studies.
Wild-type zebrafish embryos were collected and maintained as described in The Zebrafish Book by Monte Westerfield, which is incorporated herein by reference. Zebrafish were kept at 28.5° C. and maintained in E3 embryo medium (15 mM NaCl, 0.5 mM KCl, 1 mM MgSO4, 1 mM CaCl2, 0.15 mM KH2PO4, 0.05 mM Na2HPO4, 0.7 mM NaHCO3, 10^−5% methylene blue; pH 7.5).
For the example represented by FIGS. 1 and 2, 10 μL CDCO stock solution (5 mmol/L CDCO in DMSO) was added into 5 mL E3 medium, then 16 hpf zebra fish embryos were gently transferred to this medium (solution) and incubated at 28.5° C. for 30 min. The dyes which stick to the chorion of the embryos were washed away with E3 medium before imaging by fluorescence microscopy.
For the example represented by FIGS. 3-8, the zebra fish embryos at 2.5 hpf, 4.5 hpf, 6.5 hpf, 7.5 hpf, 8.5 hpf, 11.5 hpf and 16.5 hpf were separately handled following the same procedure.
For the example represented by FIG. 22, the staining time required was 1 hour, since the CDCO was more difficult to penetrate through the older fish skin. Before imaging, the zebrafish were treated with tricaine (anesthetic 0.03%).
All the zebrafish were imaged using fluorescent microscopy (Axio. Vert with X-Cite Series 120Q). The blue-CH filter: excitation 365 nm, beam splitter FT 395 nm, emission 445/50 nm. The green-CH filter: excitation 450-490 nm, beam splitter FT 510 nm, emission 515-565 nm. The red-CH filter: excitation 587/25 nm, beam splitter FT 605 nm, and emission 647/70 nm.)

[9] = tested on: yolk syncytial layer (YSL) of zebrafish embryos; experiment: fluorescence stability and leakage of CDCO in zebrafish embryos; assay type: in vivo, zebrafish (Danio rerio); settings: 5 hpf and 18 hpf embryos, 10 μM 30 min, washed, 1 hour in E3 medium
Protocol: Stability is one of the most important criteria for developing fluorescent imaging agents for living organisms, especially for tracking highly dynamic structures like the YSL.
(§3) The stable and biocompatible staining property of CDCO enables a long-term visualization method for tracking the development and migration of the YSL.
For the example represented by FIGS. 9-12, the 4.5 hpf and 17.5 hpf zebrafish embryos were firstly incubated in an E3 medium containing 10 μM CDCO and 0.2% DMSO for 0.5 h, then were washed with E3 medium, followed by incubating in the E3 medium for 1 hour.

[10] = tested on: zebrafish embryos; experiment: toxicity to labeled zebrafish embryos; assay type: in vivo, zebrafish (Danio rerio); settings: morphology and size vs non-labeled control embryos
Source text: as §3

[11] = fluorescence quenching by water; assay type: physicochemical
Source text: Upon excitation via photon irradiation, the dipole moment increased dramatically because of the charge transfer from D-A structure in compound 1. An increase in the solvent polarity could relax the excited molecules more efficiently, thus decreasing the energy of the excited state of fluorophore and resulting in a red-shifted emission. […] The fluorescence of compound 1 was nearly 100% quenched by water due to intermolecular electron or proton transfer. Non-fluorescence in water raises the possibility of eliminating the washing process in the protein detection procedure, since the free dye molecules gives negligible background signal in water.

[12] = embryos at early development stages, 10 μM, 30 minutes, 28.5° C.

Φ [1]: 37.6% | λabs [1]: 390 nm | λem [1]: 504 nm | detection limit (10% increase in fluorescence emission) [2]: 0.09 µg/mL | visual recognizable detection limit (S/N above 3:1) [2]: 2.7 µg/mL | F(+)/F(−) fluorescence intensity with BSA / without BSA ([2]; 10 mM PBS, 0.5% DMSO, pH 7.4): 1100 | fluorescence in the absence of BSA ([2]; aqueous buffer, 0.5% DMSO, 10 mM PBS, pH 7.4): almost no fluorescence | λabs(+) ([2]; 10 mM PBS, 0.5% DMSO, pH 7.4): 398 nm | λem(+) ([2]; 10 mM PBS, 0.5% DMSO, pH 7.4): 484 nm | λabs(−) ([2]; 10 mM PBS, 0.5% DMSO, pH 7.4): 398 nm | λem(−) ([2]; 10 mM PBS, 0.5% DMSO, pH 7.4): 490 nm | amount of BSA clearly observed in gel under a UV lamp [4]: ~1 µg
Structure (SMILES): COc1c(-c2ccc(N(C)C)cc2)oc2ccc(C)cc2c1=O [compound 4, 2-(4-(dimethylamino)phenyl)-3-methoxy-6-methyl-4H-chromen-4-one]
detection limit (S/N>3) for monkey serum [3]: 0.03 µL | fluorescence intensity enhancement at 505 nm ([3]; 25 μL of serum sample): 135 fold | selectivity of protein staining in gel [5]: serum albumin proteins were selectively stained

Structure (SMILES): CN(C)c1ccc(-c2oc3ccccc3c(=O)c2OCc2ccc(CCl)cc2)cc1 [CDCO, 3-(4-(chloromethyl)benzyloxy)-2-(4-(dimethylamino)phenyl)-4H-chromen-4-one]
effect of warfarin on red fluorescence ([6]; 5-fold excess of warfarin): did not completely quench the red fluorescence | emission after warfarin displacement ([6]; 5-fold excess of warfarin): 750 nm | absorption peak ([6]; after addition of one equivalent of BSA): 402 nm | absorption peak ([6]; before addition of BSA): 385 nm | fluorescence emission ([6]; excitation 400 nm, before BSA): 560 nm | blue-shift in fluorescence ([6]; excitation 400 nm, on addition of BSA): about 60 nm | fluorescence emission ([6]; excitation 400 nm, with one equivalent of BSA): 500 nm | fluorescence intensity enhancement ([6]; one equivalent of BSA, excitation at 400 nm): about 2 fold | red/near-infrared fluorescence peak ([6]; with BSA, excited at 570 nm): 700 nm | red fluorescence with zebrafish vitellogenin [7]: almost no red fluorescence | staining of 16 hpf zebrafish embryos ([8]; 10 μM, 0.2% DMSO in E3 medium, 30 minutes): stained specifically the yolk-related region in the embryos | localisation of dye during embryo development [8, 12]: consistently confined to the YSL without significant leakage to the blastoderm | staining of the yolk cell [8, 12]: barely stained | fluorescent labeling of 36 hpf embryos ([8]; incubated 1 hour): strong red fluorescence as well as blue and green emission in the yolk region | fluorescent labeling of 7 days old larval zebrafish ([8]; incubated 1 hour, YSL completely absorbed): almost no red fluorescence was observed | fluorescence leakage after washing [9]: no significant fluorescence leakage to blastoderm or somite | toxicity to labeled embryos [10]: almost no apparent toxicity

Φ [1]: 10.0% | λabs [1]: 403 nm | detection limit (10% increase in fluorescence emission) [2]: 2.6 µg/mL | visual recognizable detection limit (S/N above 3:1) [2]: 78 µg/mL | F(+)/F(−) fluorescence intensity with BSA / without BSA ([2]; 10 mM PBS, 0.5% DMSO, pH 7.4): 38 | λabs(+) ([2]; 10 mM PBS, 0.5% DMSO, pH 7.4): 416 nm | λem(+) ([2]; 10 mM PBS, 0.5% DMSO, pH 7.4): 556 nm | λabs(−) ([2]; 10 mM PBS, 0.5% DMSO, pH 7.4): 403 nm | λem(−) ([2]; 10 mM PBS, 0.5% DMSO, pH 7.4): 560 nm | fluorescence quenched by water [11]: ~100%
Structure (SMILES): CN(C)c1ccc(-c2oc3ccccc3c(=O)c2O)cc1 [compound 1, 2-(4-(dimethylamino)phenyl)-3-hydroxy-4H-chromen-4-one]
